In US20080267882A1, “Imaging compounds, methods of making imaging compounds, methods of imaging, therapeutic compounds, methods of making therapeutic compounds, and methods of therapy” (Stanford University, priority 2007, published 2008):
Blank lines part the entries; values can stand above or below the compound they belong to.

Tests used:
[1] = in vivo; details: female, athymic nude, mouse, total radioactivity
Method: (§1) All mice were sacrificed and dissected at 20 h post-injection (p.i.) of the tracer. Blood, U87MG tumor, major organs and tissues were collected and wet weighed. The radioactivity in the tissue was measured using a γ-counter (Packard). The results were presented as percentage injected dose per gram of tissue (% ID/g).

[2] = in vivo; details: c-neu oncomouse (MMTV/c-neu transgenic), mouse, iv, total radioactivity
Method: All animal experiments were performed under a protocol approved by Stanford's Administrative Panel on Laboratory Animal Care. […] The c-neu oncomouse (Charles River Laboratories, Charles River, Canada) is a spontaneous tumor-bearing model that carries an activated c-neu oncogene driven by a mouse mammary tumor virus (MMTV) promoter (Cell 1988;54:105-115, which is incorporated herein by reference for the corresponding discussion). Transgenic mice uniformly expressing the MMTV/c-neu gene develop mammary adenocarcinomas between 4 and 8 months postpartum that involve the entire epithelium in each gland. […] Each mouse was tail-vein injected with about 3.7 MBq (100 μCi) of ^18[…]2 under isoflurane anesthesia. The 30-min dynamic scan (1×30 s, 4×1 min, 1×1.5 min, 4×2 min, 1×2.5 min, 4×3 min, total of 15 frames) was started 1 min after injection. Five min static PET images were also acquired at 1 h and 2 h post-injection (p.i.). The images were reconstructed by a 2-dimensional ordered-subsets expectation maximum (OSEM) algorithm and no correction was applied for attenuation or scatter. […] Animal procedures were performed according to a protocol approved by the Stanford University Institutional Animal Care and Use Committee. […] The c-neu oncomouse (Charles River Laboratories, Charles River, Canada) is a spontaneous tumor-bearing model that carries an activated c-neu oncogene driven by a mouse mammary tumor virus (MMTV) promoter (Cell. 1988;54:105-115, which is incorporated herein by reference for the corresponding discussion). Transgenic mice uniformly expressing the MMTV/c-neu gene develop mammary adenocarcinomas between 4 and 8 months postpartum that involve the entire epithelium in each gland. […] PET scans and image analysis were performed using a microPET R4 rodent model scanner (Siemens Medical Solutions) as previously reported. […] Five min static PET images were also acquired at 1, 2, and 3 h p.i. The images were reconstructed by 2-dimensional ordered-subsets expectation maximum (OSEM) algorithm. No attenuation or scatter correction was applied. […] The 5-min static PET scans was then acquired at 30 min and 1 h p.i. […] Animal procedures were performed according to a protocol approved by Stanford University Institutional Animal Care and Use Committee. […] Transgenic mice uniformly expressing the MMTV/c-neu gene develop mammary adenocarcinomas (4 to 8 months postpartum) that involve the entire epithelium in each gland. […] Five minute static scans were acquired at 30 min, 1 h, 2 h, 6 h, and 20 h p.i. […] The radioactivity concentration (accumulation) within a tumor was obtained from the maximum value within the multiple ROIs and then converted to % ID/g.

[3] = in vivo; details: mouse, iv, total radioactivity
Method: (§2) PET scans and image analysis were performed using a microPET R4 rodent model scanner (Siemens Medical Solutions) as previously reported (J Nucl Med 2006;47:113-121 and J Nucl Med 2005;46:1707-1718, each of which is incorporated herein by reference for the corresponding discussion). Each mouse was tail-vein injected with about 3.7 MBq (100 μCi) of ^18F-FPRGD2 under isoflurane anesthesia. The 30-min dynamic scan (1×30 s, 4×1 min, 1×1.5 min, 4×2 min, 1×2.5 min, 4×3 min, total of 15 frames) was started 1 min after injection. Five min static PET images were also acquired at 1 h and 2 h post-injection (p.i.). The images were reconstructed by a 2-dimensional ordered-subsets expectation maximum (OSEM) algorithm and no correction was applied for attenuation or scatter.
(§3) PET scans and image analysis were performed using a microPET R4 rodent model scanner (Siemens Medical Solutions) as previously reported. For U87MG tumor model, mice (n=3) were tail-vein injected with about 3.7 MBq (100 μCi) of ^18F-FPRGD4 under isoflurane anesthesia and then subjected to a 30-min dynamic scan (1×30 s, 4×1 min, 1×1.5 min, 4×2 min, 1×2.5 min, 4×3 min, total of 15 frames) starting from 1 min p.i. Five min static PET images were also acquired at 1, 2, and 3 h p.i. The images were reconstructed by 2-dimensional ordered-subsets expectation maximum (OSEM) algorithm. No attenuation or scatter correction was applied. […] The 5-min static PET scans was then acquired at 30 min and 1 h p.i. Multiple time point static scans were also obtained for orthotopic MDA-MB-435, c-neu oncomouse, and subcutaneous DU145 tumor models after tail-vein injected with 3.7 MBq of ^18F-FPRGD4.
(§4) For each microPET scan, regions of interest (ROIs) were drawn over the tumor, normal tissue, and major organs by using vendor software (ASI Pro 5.2.4.0) on decay-corrected whole-body coronal images. The maximum radioactivity concentration (accumulation) within a tumor or an organ was obtained from mean pixel values within the multiple ROI volume, which were converted to counts/mL/min by using a conversion factor. Assuming a tissue density of 1 g/mL, the ROIs were converted to counts/g/min and then divided by the administered activity to obtain an imaging ROI-derived % ID/g. […]
(§5) PET scans and image analysis were performed using a microPET R4 rodent model scanner (Siemens Medical Solutions) as previously reported (J Nucl Med. 2005;46:1707-1718 and J Nucl Med. 2006;47:113-121, each of which is incorporated herein by reference for the corresponding discussion). About 9.3 MBq of ^64Cu-DOTA-RGD multimer was intravenously injected into each mouse under isoflurane anesthesia. Five minute static scans were acquired at 30 min, 1 h, 2 h, 6 h, and 20 h p.i. The images were reconstructed by a 2-dimensional ordered-subsets expectation maximum (OSEM) algorithm and no correction was applied for attenuation and scatter. For each microPET scan, regions of interest (ROIs) were drawn over the tumor, normal tissue, and major organs on decay-corrected whole-body coronal images. The radioactivity concentration (accumulation) within a tumor was obtained from the maximum value within the multiple ROIs and then converted to % ID/g.
(§6) PET scans and image analysis were performed using a microPET R4 rodent model scanner (Siemens Medical Solutions) as previously reported (J Nucl Med. 2006;47:113-21 and J Nucl Med. 2005;46:1707-18, which is incorporated herein by reference for the corresponding discussion). […] The 60-min dynamic scan (5×1 min, 10×3 min, 5×5 min, total of 20 frames) was started 1 min after injection. A 2 h time point static scan was also acquired after the 60 min dynamic scan. Five min static PET images were also acquired separately at 30 min, 1 h and 2 h time points post-injection (p.i.) for another set of tumor-bearing mice (n=3/tracer). The images were reconstructed by a 2-dimensional ordered-subsets expectation maximum (OSEM) algorithm and no correction was necessary for attenuation or scatter correction. […]

[4] = in vivo; details: female, nude, mouse, total radioactivity
Method: as §1, with “1” for “20”, “after injection” for “post-injection (p.i.)”, “Blood,” for “Blood, U87MG”

[5] = system: U87MG tumor-bearing mice; experiment: in vivo; details: athymic nude, mouse, iv, 3.7 MBq, 1 h
Method: as §2, §3, §4, §5, §6

[6] = female, athymic nude, 10 mg/kg, U87MG tumor uptake with blocking
[7] = female, athymic nude, 9.3 MBq, U87MG tumor uptake
[8] = female, athymic nude, U87MG tumor uptake
[9] = athymic nude, 3.7 MBq, U87MG tumor uptake
[10] = nude, 3.7 MBq, U87MG tumor uptake

- tissue uptake at 20 h [1]: 27 ± 3.5 %ID/g
- tissue uptake at 20 h ([2]; 9.3 MBq): 6.6 ± 1.5 %ID/g
- tissue uptake at 1 h [2]: 8.9 ± 2.1 %ID/g
- tissue uptake at 2 h [3, 6]: 1.7 ± 0.2 %ID/g
- tissue uptake at 6 h [3, 7]: 10.5 ± 0.7 %ID/g
- tissue uptake at 20 h [3, 7]: 10.3 ± 1 %ID/g
- tissue uptake at 0.5 h [3, 8]: 11.7 ± 0.7 %ID/g
- tissue uptake at 1 h [3, 8]: 10.6 ± 0.7 %ID/g
- tissue uptake at 2 h [3, 8]: 10.6 ± 0.3 %ID/g
Compound: N=C(N)NCCC[C@@H]1NC(=O)[C@H](CCCCNC(=O)CC[C@H](NC(=O)CC[C@H](NC(=O)CC[C@H](NC(=O)CN2CCN(CC(=O)O)CCN(CC(=O)O)CCN(CC(=O)O)CC2)C(=O)N[C@@H](CCC(=O)N[C@@H](CCC(=O)NCCCC[C@@H]2NC(=O)[C@@H](Cc3ccc(O)cc3)NC(=O)[C@H](CC(=O)O)NC(=O)CNC(=O)[C@H](CCCNC(=N)N)NC2=O)C(=O)NCCCC[C@@H]2NC(=O)[C@@H](Cc3ccc(O)cc3)NC(=O)[C@H](CC(=O)O)NC(=O)CNC(=O)[C@H](CCCNC(=N)N)NC2=O)C(=O)N[C@@H](CCC(=O)NCCCC[C@@H]2NC(=O)[C@@H](Cc3ccc(O)cc3)NC(=O)[C@H](CC(=O)O)NC(=O)CNC(=O)[C@H](CCCNC(=N)N)NC2=O)C(=O)NCCCC[C@@H]2NC(=O)[C@@H](Cc3ccc(O)cc3)NC(=O)[C@H](CC(=O)O)NC(=O)CNC(=O)[C@H](CCCNC(=N)N)NC2=O)C(=O)N[C@@H](CCC(=O)NCCCC[C@@H]2NC(=O)[C@@H](Cc3ccc(O)cc3)NC(=O)[C@H](CC(=O)O)NC(=O)CNC(=O)[C@H](CCCNC(=N)N)NC2=O)C(=O)NCCCC[C@@H]2NC(=O)[C@@H](Cc3ccc(O)cc3)NC(=O)[C@H](CC(=O)O)NC(=O)CNC(=O)[C@H](CCCNC(=N)N)NC2=O)C(=O)NCCCC[C@@H]2NC(=O)[C@@H](Cc3ccc(O)cc3)NC(=O)[C@H](CC(=O)O)NC(=O)CNC(=O)[C@H](CCCNC(=N)N)NC2=O)NC(=O)[C@@H](Cc2ccc(O)cc2)NC(=O)[C@H](CC(=O)O)NC(=O)CNC1=O [^64Cu-DOTA-RGD octamer, metal not drawn]

- tissue uptake at 1 h ([4]; 10 mg/kg, tumor uptake with blocking): 0.21 ± 0.03 %ID/g
- tissue uptake at 1 h ([4]; 3.7 MBq, kidney uptake): 4.3 ± 0.25 %ID/g
- tissue uptake at 1 h ([4]; 3.7 MBq, tumor uptake): 3.82 ± 0.7 %ID/g
- tissue uptake at 1 h ([4]; 3.7 MBq, uptake values in the other major organs): ≤ 1 %ID/g
- tissue uptake at 0.5 h [3, 9]: 2.6 ± 0.2 %ID/g
- tissue uptake at 1 h [3, 9]: 2.8 ± 0.11 %ID/g
- tissue uptake at 2 h [3, 9]: 1.7 ± 0.1 %ID/g
- tissue uptake at 1 h ([3]; athymic nude, 3.7 MBq, kidney uptake): 2 %ID/g
- tissue uptake at 1 h [3, 6]: 0.31 ± 0.02 %ID/g
- tissue uptake at 5 min [3, 10]: 4.39 %ID/g
- tissue uptake at 0.25 h [3, 10]: 3.46 %ID/g
- tissue uptake at 0.5 h [3, 10]: 2.79 %ID/g
- tissue uptake at 1 h [3, 10]: 2.34 %ID/g
- tissue uptake at 2 h [3, 10]: 1.89 %ID/g
- tissue uptake at 1 h ([3]; nude, 3.7 MBq, kidney uptake): 4.6 %ID/g
- U87MG tumor uptake [5]: 2.2±0.1 % ID/g
Compound: N=C(N)NCCC[C@@H]1NC(=O)[C@H](CCCCNC(=O)CC[C@H](NC(=S)Nc2ccc(C[C@H]3CN(CC(=O)O)CCN(CC(=O)O)CCN3CC(=O)O)cc2)C(=O)NCCCC[C@@H]2NC(=O)[C@@H](Cc3ccc(O)cc3)NC(=O)[C@H](CC(=O)O)NC(=O)CNC(=O)[C@H](CCCNC(=N)N)NC2=O)NC(=O)[C@@H](Cc2ccc(O)cc2)NC(=O)[C@H](CC(=O)O)NC(=O)CNC1=O [^68Ga-NOTA-RGD2, metal not drawn]
